Here are results for 18 compounds from ChEMBL document CHEMBL4196124, “Reverse Hydroxamate Inhibitors of Bone Morphogenetic Protein 1” (ACS Med Chem Lett, 2018).

pIC50, pKi: −log10 of the molar value.

Series [1] addresses T1, Bone morphogenetic protein 1 (Homo sapiens, UniProt P13497).
T1 sequence (P13497 whole entry): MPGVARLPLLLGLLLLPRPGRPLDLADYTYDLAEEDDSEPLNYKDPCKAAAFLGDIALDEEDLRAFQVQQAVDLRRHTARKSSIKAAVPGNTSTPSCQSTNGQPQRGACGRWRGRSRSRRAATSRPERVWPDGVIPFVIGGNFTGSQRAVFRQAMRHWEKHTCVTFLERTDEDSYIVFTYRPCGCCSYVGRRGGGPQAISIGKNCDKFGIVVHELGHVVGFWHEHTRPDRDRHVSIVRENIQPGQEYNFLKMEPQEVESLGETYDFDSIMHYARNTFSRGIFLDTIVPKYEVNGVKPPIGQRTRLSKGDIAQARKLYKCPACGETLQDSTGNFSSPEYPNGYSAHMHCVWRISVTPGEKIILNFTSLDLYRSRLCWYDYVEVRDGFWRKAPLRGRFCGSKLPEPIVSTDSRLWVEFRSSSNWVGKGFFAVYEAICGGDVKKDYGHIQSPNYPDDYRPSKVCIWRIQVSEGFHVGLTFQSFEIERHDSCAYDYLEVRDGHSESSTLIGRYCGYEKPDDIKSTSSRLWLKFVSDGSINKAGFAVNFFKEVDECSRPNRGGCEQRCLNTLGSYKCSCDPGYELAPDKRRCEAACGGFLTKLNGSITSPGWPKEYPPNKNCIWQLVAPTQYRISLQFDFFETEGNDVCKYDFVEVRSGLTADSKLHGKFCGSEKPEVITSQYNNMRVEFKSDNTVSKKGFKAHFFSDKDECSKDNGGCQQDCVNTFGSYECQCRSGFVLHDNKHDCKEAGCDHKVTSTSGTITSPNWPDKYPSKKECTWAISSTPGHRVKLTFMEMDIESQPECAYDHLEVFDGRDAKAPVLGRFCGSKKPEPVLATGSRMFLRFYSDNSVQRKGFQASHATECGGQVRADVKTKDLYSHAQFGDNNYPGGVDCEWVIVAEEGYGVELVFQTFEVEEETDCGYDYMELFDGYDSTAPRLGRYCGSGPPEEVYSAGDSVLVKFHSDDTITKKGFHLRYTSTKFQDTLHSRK
Nature of the series: Inhibition of recombinant human N-terminal 6His/flag-tagged BMP1 (121 to 721 residues) expressed in CHO cells using ((5-FAM)-ELIDQYDVQRDDSSDGSLED-K(5,6 TAMRA)-CONH2) as substrate preincubated for 10 mins followed by substrate addition measured after 60 mins.

Series [2] addresses T1, Bone morphogenetic protein 1. Nature of the series: Binding affinity to BMP1 (unknown origin) using ((5-FAM)-ELIDQYDVQRDDSSDGSLED-K(5,6 TAMRA)-CONH2 as substrate preincubated for 3 hrs followed by substrate addition measured for 120 mins by FRET assay.
A short description of series [3]: Mean residence time in sc dosed dog. In kind it is ADME, organism-based, Canis lupus familiaris. The settings on record: in vivo.
In series [4] the target is T2, Bone morphogenetic protein 1 (Homo sapiens) (UniProt P13497).
T2 sequence (whole entry): T1 sequence (P13497 whole entry)
Nature of the series: Binding affinity to BMP1 (unknown origin) assessed as association rate constant using ((5-FAM)-ELIDQYDVQRDDSSDGSLED-K(5,6 TAMRA)-CONH2 as substrate by FRET based stopped-flow spectrofluorometric method.

Series [5] can be described thus: Mean residence time in sc dosed rat. The class given is ADME, organism-based. Particulars: in vivo.
The target in series [6] is T2, Bone morphogenetic protein 1 (Homo sapiens). Nature of the series: Binding affinity to BMP1 (unknown origin) assessed as half life using ((5-FAM)-ELIDQYDVQRDDSSDGSLED-K(5,6 TAMRA)-CONH2 as substrate preincubated for 0.5 hrs followed by substrate addition measured over 4 hrs by rapid jump dilution method.
Another series has as its target T3, Tolloid-like protein 2 (Homo sapiens, UniProt Q9Y6L7).
T3 sequence (Q9Y6L7 whole entry): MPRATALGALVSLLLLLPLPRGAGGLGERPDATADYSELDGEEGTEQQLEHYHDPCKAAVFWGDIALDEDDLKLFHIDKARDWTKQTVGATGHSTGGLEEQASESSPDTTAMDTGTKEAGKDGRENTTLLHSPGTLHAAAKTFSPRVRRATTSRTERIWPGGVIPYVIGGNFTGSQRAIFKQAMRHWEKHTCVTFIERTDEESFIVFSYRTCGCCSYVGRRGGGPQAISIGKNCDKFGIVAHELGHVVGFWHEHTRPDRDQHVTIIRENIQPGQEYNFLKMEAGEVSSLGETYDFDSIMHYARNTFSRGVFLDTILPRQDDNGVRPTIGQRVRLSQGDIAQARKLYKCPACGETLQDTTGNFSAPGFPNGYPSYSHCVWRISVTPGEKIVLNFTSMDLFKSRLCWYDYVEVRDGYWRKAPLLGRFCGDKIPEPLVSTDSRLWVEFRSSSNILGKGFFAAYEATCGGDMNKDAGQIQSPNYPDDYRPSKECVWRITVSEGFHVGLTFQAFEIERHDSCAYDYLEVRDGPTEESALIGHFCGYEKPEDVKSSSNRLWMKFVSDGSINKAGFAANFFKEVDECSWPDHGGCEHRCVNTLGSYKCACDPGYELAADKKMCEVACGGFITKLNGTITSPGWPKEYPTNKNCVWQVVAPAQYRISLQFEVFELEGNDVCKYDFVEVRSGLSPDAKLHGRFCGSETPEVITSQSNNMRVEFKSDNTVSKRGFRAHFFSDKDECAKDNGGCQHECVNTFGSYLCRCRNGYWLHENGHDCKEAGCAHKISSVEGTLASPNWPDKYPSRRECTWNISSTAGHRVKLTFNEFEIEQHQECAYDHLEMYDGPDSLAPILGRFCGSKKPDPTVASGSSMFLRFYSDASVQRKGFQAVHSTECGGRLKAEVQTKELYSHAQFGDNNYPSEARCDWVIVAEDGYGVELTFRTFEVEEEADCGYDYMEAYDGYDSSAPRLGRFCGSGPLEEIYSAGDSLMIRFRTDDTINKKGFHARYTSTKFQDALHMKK
Nature of the series: Binding affinity to TLL2 (unknown origin) using ((5-FAM)-ELIDQYDVQRDDSSDGSLED-K(5,6 TAMRA)-CONH2 as substrate incubated for 3.5 hrs followed by substrate addition by FRET assay.

Series [7] deals with T2, Bone morphogenetic protein 1 (Homo sapiens). Nature of the series: Binding affinity to BMP1 (unknown origin) assessed as dissociation rate constant using ((5-FAM)-ELIDQYDVQRDDSSDGSLED-K(5,6 TAMRA)-CONH2 as substrate preincubated for 0.5 hrs followed by substrate addition measured over 4 hrs by rapid jump dilution method.
For the next series, the system named is Rattus norvegicus. Nature of the series: Dose normalized AUC in subcutaneously dosed rat. The class given is ADME, organism-based. The settings on record: in vivo, sc.
The test system of another series is Canis familiaris. Nature of the series: Dose normalized AUC in subcutaneously dosed dog. The class given is ADME, organism-based, Canis lupus familiaris. Particulars: in vivo, sc.
The target in another series is T4, Tolloid-like protein 1 (Homo sapiens, UniProt O43897).
T4 sequence (O43897 whole entry): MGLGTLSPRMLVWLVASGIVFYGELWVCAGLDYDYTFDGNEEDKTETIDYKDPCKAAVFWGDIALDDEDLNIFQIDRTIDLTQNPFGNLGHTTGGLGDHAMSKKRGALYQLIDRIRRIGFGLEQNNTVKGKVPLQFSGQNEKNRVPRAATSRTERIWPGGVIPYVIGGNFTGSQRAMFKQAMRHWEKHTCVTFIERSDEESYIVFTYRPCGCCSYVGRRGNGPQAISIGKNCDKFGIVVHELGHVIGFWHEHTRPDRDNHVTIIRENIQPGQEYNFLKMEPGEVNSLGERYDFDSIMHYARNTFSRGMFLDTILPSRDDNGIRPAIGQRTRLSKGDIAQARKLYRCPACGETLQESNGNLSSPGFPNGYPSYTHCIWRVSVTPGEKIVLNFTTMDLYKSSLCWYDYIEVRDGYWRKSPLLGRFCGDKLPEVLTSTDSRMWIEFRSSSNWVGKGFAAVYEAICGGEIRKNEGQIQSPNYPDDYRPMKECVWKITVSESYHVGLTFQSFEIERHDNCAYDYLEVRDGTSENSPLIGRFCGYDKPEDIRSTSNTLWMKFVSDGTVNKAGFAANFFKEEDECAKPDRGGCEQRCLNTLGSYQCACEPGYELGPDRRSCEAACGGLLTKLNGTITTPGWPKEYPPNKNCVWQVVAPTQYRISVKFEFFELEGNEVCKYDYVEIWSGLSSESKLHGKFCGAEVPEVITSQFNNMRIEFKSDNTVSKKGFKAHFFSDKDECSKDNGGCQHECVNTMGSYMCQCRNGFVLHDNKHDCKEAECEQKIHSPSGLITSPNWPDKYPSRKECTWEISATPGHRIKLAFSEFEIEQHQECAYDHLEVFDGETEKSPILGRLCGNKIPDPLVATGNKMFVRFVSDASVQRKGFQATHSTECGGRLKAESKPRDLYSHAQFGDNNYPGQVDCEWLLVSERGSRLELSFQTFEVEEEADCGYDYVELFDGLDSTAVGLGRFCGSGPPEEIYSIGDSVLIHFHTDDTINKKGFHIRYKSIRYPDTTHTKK
Nature of the series: Binding affinity to TLL1 (unknown origin) using ((5-FAM)-ELIDQYDVQRDDSSDGSLED-K(5,6 TAMRA)-CONH2 as substrate incubated for 3.5 hrs followed by substrate addition by FRET assay.

In series [8] the target is Macrophage metalloelastase (Homo sapiens, UniProt P39900). Nature of the series: Inhibition of MMP12 (unknown origin).
Chain of Macrophage metalloelastase (P39900 whole entry): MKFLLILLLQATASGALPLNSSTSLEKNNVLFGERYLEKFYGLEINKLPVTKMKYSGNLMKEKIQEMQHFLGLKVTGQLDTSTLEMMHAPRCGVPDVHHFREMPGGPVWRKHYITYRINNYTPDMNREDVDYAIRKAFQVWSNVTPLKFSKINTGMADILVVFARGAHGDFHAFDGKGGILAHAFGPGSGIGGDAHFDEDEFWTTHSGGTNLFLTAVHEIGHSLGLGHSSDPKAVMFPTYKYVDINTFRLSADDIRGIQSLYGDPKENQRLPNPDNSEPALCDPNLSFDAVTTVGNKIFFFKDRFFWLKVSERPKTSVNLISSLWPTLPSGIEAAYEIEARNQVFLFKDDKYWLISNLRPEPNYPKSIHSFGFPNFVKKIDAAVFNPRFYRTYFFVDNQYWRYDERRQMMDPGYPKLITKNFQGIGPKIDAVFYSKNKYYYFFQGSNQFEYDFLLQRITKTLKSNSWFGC

As for `CCCCC[C@H](CN(O)C=O)C(=O)NCNC(=O)c1ccc(-c2ccccc2)o1`, in series [1], the pIC50 is 7.60.

In the case of `CCCCC[C@@H](C(=O)NCNC(=O)c1ccc(-c2cc(OCC)cc(C(=O)N[C@@H](CC(=O)O)C(=O)O)c2)o1)[C@@H](CC)N(O)C=O`, the pIC50 in [1] was greater than 9.00.

As to `CCCCC[C@@H](C(=O)NCNC(=O)c1ccc(-c2cc(OCC)cc(P(=O)(O)O)c2)o1)[C@@H](CC)N(O)C=O`, the results for the pKi (in series [2]; at Tolloid-like protein 2; at Tolloid-like protein 1) were 10.40, 9.59 and 9.62, respectively. Further, the mean residence time (MRT) in series [3] and in [5] was greater than 2 h in each case. Moreover, the K in [4] stood at 3.6e+06 M⁻¹ s⁻¹; in series [7] it was 0.93 h⁻¹. Besides, the T1/2 in series [6] came out at 0.75 h. Also, the AUC/dose with Rattus norvegicus stood at 2.3 kg·h/L; in the series on Canis familiaris, 5 kg·h/L. Further, the pIC50 in [1] is greater than 9.00.

In the case of `CCCCC[C@@H](C(=O)NCNC(=O)c1ccc(-c2ccc(C(=O)N[C@@H](CC(=O)O)C(=O)O)c(OCC)c2)o1)[C@@H](CC)N(O)C=O`, the figures for the pKi (in [2]; at Tolloid-like protein 2; at Tolloid-like protein 1) were 11.17, 10.41 and 10.51, respectively. The MRT in [3] and in series [5] was greater than 2 h in each case. Moreover, the results for the K in [4] and in series [7] were 5.5e+07 M⁻¹ s⁻¹ and 2.3 h⁻¹, respectively. Moreover, the T1/2 in series [6] was 0.3 h. The AUC/dose was 0.27 kg·h/L in the series on Rattus norvegicus and 0.85 kg·h/L in the series with Canis familiaris. Besides, the pIC50 in series [1] is greater than 9.00.

`CCCCC[C@@H](C(=O)NCNC(=O)c1ccc(-c2ccc(C(=O)O)c(OCC)c2)o1)[C@@H](CC)N(O)C=O`: the pIC50 in series [1] is greater than 9.00.

As to `CCCCC[C@@H](C(=O)NCNC(=O)c1ccc(-c2ccc(P(=O)(O)O)c(OCC)c2)o1)[C@@H](CC)N(O)C=O`, the pIC50 in series [1] is greater than 9.00.

For `CCCCC[C@H](CN(O)C=O)C(=O)NCNC(=O)c1ccc(-c2cccc(OCC)c2)o1`, in [1], the pIC50 was 9.00.

With `COc1cccc2cc(C(=O)NCNC(=O)CCN(O)C=O)oc12`, the pIC50 in series [8] was less than 5.00; in series [1], 5.20.

With `COc1cccc2cc(C(=O)NCNC(=O)[C@H](Cc3ccccc3)CN(O)C=O)oc12`, the results for the pIC50 in series [8] and in series [1] were 5.40 and 6.80, respectively.

Consider `CCCCC[C@@H](C(=O)NCNC(=O)c1ccc(-c2cc(OCC)cc(C(=O)O)c2)o1)[C@@H](CC)N(O)C=O`, for which the negative-log IC50 (pIC50) in [1] is greater than 9.00.

As for `CCCCC[C@@H](C(=O)NCNC(=O)c1cc2cccc(OC)c2o1)[C@@H](CC)N(O)C=O`, the values for the pIC50 in series [8] and in series [1] were less than 5.00 and 6.90, respectively.

Take `CCCCC[C@H](CN(O)C=O)C(=O)NCNC(=O)c1ccc(-c2cccc(C(=O)O)c2)o1`: the pIC50 in series [1] was 8.10.

Regarding `CCCCC[C@H](CN(O)C=O)C(=O)NCNC(=O)c1ccc(-c2ccc(C(=O)O)cc2)o1`, the pIC50 in [1] is 9.00.

Consider `CCC[C@H](CN(O)C=O)C(=O)NCNC(=O)c1cc2cccc(OC)c2o1`, for which the negative logarithm of the IC50 (pIC50) in series [8] and in series [1] was 5.90 each time.

For the compound `CCCCC[C@@H](CN(O)C=O)C(=O)NCNC(=O)c1cc2cccc(OC)c2o1`, the values for the pIC50 in series [8] and in series [1] were less than 5.00 and 5.40, respectively.

Regarding `CCCCC[C@H](CN(O)C=O)C(=O)NCNC(=O)c1ccc(-c2cccc(OC)c2)o1`, in series [1], the negative-log IC50 (pIC50) is 7.70.

With `CCCCC[C@H](CN(O)C=O)C(=O)NCNC(=O)c1cc2cccc(OC)c2o1`, the results for the pIC50 in [8] and in series [1] were 6.40 and 6.80, respectively.

Turning to `CCCCC[C@@H](C(=O)NCNC(=O)c1cc2cccc(OC)c2o1)[C@H](CC)N(O)C=O`, the figures for the pIC50 in [8] and in series [1] were 6.70 and less than 5.00, respectively.
